# Measured values published in paper PMC6044933 (ACS Omega, 2017).
# Counter-ions that a name gives are not always drawn. Like-named read-outs stand apart in the source and are kept apart here.
# How the values were obtained:
# Experiment in all cases: cells
# BE2-C = details: Homo sapiens, BE(2)-C, 72 h
# MCF10A = details: Homo sapiens, MCF-10A, 72 h
# Du145 = details: Homo sapiens, DU-145, 72 h
# H460 = details: Homo sapiens, NCI-H460, 72 h
# MIA = details: 72 h
# A2780 = details: Homo sapiens, A2780, 72 h
# SMA = details: SMA, 72 h
# U87 = details: Homo sapiens, U-87 MG, 72 h
# SJ-G2 = details: SJ-G2, 72 h
# MCF-7 = details: Homo sapiens, MCF7, 72 h
# HT29 = details: Homo sapiens, HT-29, 72 h
# A431 = details: Homo sapiens, A-431, 72 h
structure (smiles),measurement,setting,value
"Nc1ccc(OC/C=C\COc2ccc(N)cc2)cc1 [8e, (Z)-4,4′-(But-2-ene-1,4-diylbis(oxy))dianiline hydrochloride]",GI50,BE2-C; read-out: 8e,> 50 µM
same,GI50,MCF10A; read-out: 8e,> 50 µM
same,GI50,Du145; read-out: 8e,> 50 µM
same,GI50,H460; read-out: 8e,> 50 µM
same,GI50,MIA; read-out: 8e,> 50 µM
same,GI50,A2780; read-out: 8e,> 50 µM
same,GI50,SMA; read-out: 8e,> 50 µM
same,GI50,U87; read-out: 8e,> 50 µM
same,GI50,SJ-G2; read-out: 8e,> 50 µM
same,GI50,MCF-7; read-out: 8e,> 50 µM
same,GI50,HT29; read-out: 8e,> 50 µM
same,GI50,A431; read-out: 8e,> 50 µM
"CCNC(=O)Nc1ccc(OCCCOc2ccc(NC(=O)NCC)cc2)cc1 [10a, N,N′-[1,3-Propanediylbis(oxy-4,1-phenylene)]bis(N-ethyl)urea]",GI50,BE2-C; read-out: 10a,> 50 µM
same,GI50,MCF10A; read-out: 10a,> 50 µM
same,GI50,Du145; read-out: 10a,> 50 µM
same,GI50,H460; read-out: 10a,> 50 µM
same,GI50,MIA; read-out: 10a,> 50 µM
same,GI50,A2780; read-out: 10a,> 50 µM
same,GI50,SMA; read-out: 10a,> 50 µM
same,GI50,U87; read-out: 10a,> 50 µM
same,GI50,SJ-G2; read-out: 10a,> 50 µM
same,GI50,MCF-7; read-out: 10a,> 50 µM
same,GI50,HT29; read-out: 10a,> 50 µM
same,GI50,A431; read-out: 10a,> 50 µM
"CCNC(=O)Nc1ccc(OCCCCCOc2ccc(NC(=O)NCC)cc2)cc1 [10b, N,N′-[1,5-Pentanediylbis(oxy-4,1-phenylene)]bis(N-ethyl)urea]",GI50,BE2-C; read-out: 10b,> 50 µM
same,GI50,MCF10A; read-out: 10b,> 50 µM
same,GI50,Du145; read-out: 10b,> 50 µM
same,GI50,H460; read-out: 10b,> 50 µM
same,GI50,MIA; read-out: 10b,> 50 µM
same,GI50,A2780; read-out: 10b,> 50 µM
same,GI50,SMA; read-out: 10b,> 50 µM
same,GI50,U87; read-out: 10b,> 50 µM
same,GI50,SJ-G2; read-out: 10b,> 50 µM
same,GI50,MCF-7; read-out: 10b,> 50 µM
same,GI50,HT29; read-out: 10b,> 50 µM
same,GI50,A431; read-out: 10b,> 50 µM
"CCNC(=O)Nc1ccc(OC/C=C\COc2ccc(NC(=O)NCC)cc2)cc1 [10e, (Z)-1,1′-((But-2-ene-1,4-diylbis(oxy))bis(4,1-phenylene))bis(3-ethylurea)]",GI50,BE2-C; read-out: 10e,> 50 µM
same,GI50,MCF10A; read-out: 10e,> 50 µM
same,GI50,Du145; read-out: 10e,> 50 µM
same,GI50,H460; read-out: 10e,> 50 µM
same,GI50,MIA; read-out: 10e,> 50 µM
same,GI50,A2780; read-out: 10e,> 50 µM
same,GI50,SMA; read-out: 10e,> 50 µM
same,GI50,U87; read-out: 10e,> 50 µM
same,GI50,SJ-G2; read-out: 10e,> 50 µM
same,GI50,MCF-7; read-out: 10e,> 50 µM
same,GI50,HT29; read-out: 10e,> 50 µM
same,GI50,A431; read-out: 10e,> 50 µM
"CCNC(=O)Nc1ccc(OC/C=C\COc2ccc(CCN)cc2)cc1 [13i, (Z)-2-(4-((4-(4-(3-Ethylureido)phenoxy)but-2-en-1-yl)oxy)phenyl)ethan-1-aminium]",GI50,BE2-C; read-out: 13i,18 ± 3.2 µM
same,GI50,MCF10A; read-out: 13i,19 ± 0.5 µM
same,GI50,Du145; read-out: 13i,13 ± 0.41 µM
same,GI50,H460; read-out: 13i,21 ± 2.1 µM
same,GI50,MIA; read-out: 13i,28 ± 0.82 µM
same,GI50,A2780; read-out: 13i,18 ± 0.91 µM
same,GI50,SMA; read-out: 13i,28 ± 4.4 µM
same,GI50,U87; read-out: 13i,29 ± 1.4 µM
same,GI50,SJ-G2; read-out: 13i,24 ± 2.6 µM
same,GI50,MCF-7; read-out: 13i,17 ± 0.82 µM
same,GI50,HT29; read-out: 13i,15 µM
same,GI50,A431; read-out: 13i,17 ± 0.75 µM
CCNC(=O)Nc1ccc(OCCCCOc2ccc(NC(=O)NCC)cc2)cc1 [compound 1],GI50,BE2-C; read-out: 1,> 50 µM
same,GI50,MCF10A; read-out: 1,> 50 µM
same,GI50,Du145; read-out: 1,> 50 µM
same,GI50,H460; read-out: 1,> 50 µM
same,GI50,MIA; read-out: 1,> 50 µM
same,GI50,A2780; read-out: 1,> 50 µM
same,GI50,SMA; read-out: 1,> 50 µM
same,GI50,U87; read-out: 1,> 50 µM
same,GI50,SJ-G2; read-out: 1,> 50 µM
same,GI50,MCF-7; read-out: 1,> 50 µM
same,GI50,HT29; read-out: 1,> 50 µM
same,GI50,A431; read-out: 1,> 50 µM
"O=C(O)c1ccc(OC/C=C\COc2ccc(C(=O)O)cc2)cc1 [compound 18, (Z)-4,4′-(But-2-ene-1,4-diylbis(oxy))dibenzoic Acid]",GI50,BE2-C; read-out: 18,> 50 µM
same,GI50,MCF10A; read-out: 18,> 50 µM
same,GI50,Du145; read-out: 18,> 50 µM
same,GI50,H460; read-out: 18,> 50 µM
same,GI50,MIA; read-out: 18,> 50 µM
same,GI50,A2780; read-out: 18,> 50 µM
same,GI50,SMA; read-out: 18,> 50 µM
same,GI50,U87; read-out: 18,> 50 µM
same,GI50,SJ-G2; read-out: 18,> 50 µM
same,GI50,MCF-7; read-out: 18,> 50 µM
same,GI50,HT29; read-out: 18,> 50 µM
same,GI50,A431; read-out: 18,> 50 µM
N=C(N)NN=Cc1ccc(OC/C=C\COc2ccc(C=NNC(=N)N)cc2)cc1 [compound 22],GI50,BE2-C; read-out: 22,2.3 ± 0.13 µM
same,GI50,MCF10A; read-out: 22,2.8 ± 0.15 µM
same,GI50,Du145; read-out: 22,1.7 ± 0.12 µM
same,GI50,H460; read-out: 22,2.2 ± 0.065 µM
same,GI50,MIA; read-out: 22,2.4 ± 0.14 µM
same,GI50,A2780; read-out: 22,2.4 ± 0.14 µM
same,GI50,SMA; read-out: 22,2.9 µM
same,GI50,U87; read-out: 22,2 ± 0.1 µM
same,GI50,SJ-G2; read-out: 22,1.8 ± 0.048 µM
same,GI50,MCF-7; read-out: 22,2.3 ± 0.1 µM
same,GI50,HT29; read-out: 22,2.1 ± 0.05 µM
same,GI50,A431; read-out: 22,2.2 ± 0.11 µM
